The results in this text go back to ChEMBL document CHEMBL1128787, “Design of a new selective cysteine protease inactivator and its mechanistic implications” (Bioorg Med Chem Lett, 1995).

Assay [1] concerns the target T1, Cathepsin B (Homo sapiens, UniProt P07858). Put plainly: Kinetic parameter (Ki mM) was evaluated for the inactivation of cathepsin B.
Assay [2] concerns the target T2, Papain (Carica papaya, UniProt P00784).
T2 sequence (P00784 whole entry): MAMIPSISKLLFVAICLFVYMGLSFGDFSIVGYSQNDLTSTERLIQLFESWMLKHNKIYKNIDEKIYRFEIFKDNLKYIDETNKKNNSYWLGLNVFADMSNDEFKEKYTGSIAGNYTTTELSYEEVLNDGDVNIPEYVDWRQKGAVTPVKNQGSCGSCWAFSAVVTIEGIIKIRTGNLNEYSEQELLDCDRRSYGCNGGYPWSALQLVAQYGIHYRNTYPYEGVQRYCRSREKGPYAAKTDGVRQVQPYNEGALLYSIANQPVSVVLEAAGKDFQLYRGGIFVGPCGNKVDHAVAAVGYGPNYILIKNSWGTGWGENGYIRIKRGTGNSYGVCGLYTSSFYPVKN
The assay is described as follows: Kinetic parameter (Ki 1/min) was evaluated for the inactivation of papain.

The target of assay [3] is T2, Papain. The assay is described as follows: Kinetic parameter (Ki mM) was evaluated for the inactivation of papain.
Assay [4] addresses T1, Cathepsin B. The assay is described as follows: Kinetic parameter (kinact 1/min) was evaluated for the inactivation of cathepsin B.

As a reminder, the kinact is the maximal first-order rate at which the target is inactivated.

As for `O=C(N[C@@H](Cc1ccccc1)[C@H]1CO1)OCc1ccccc1`, the Ki amounted to 367 µM at Cathepsin B [1], 0.208 min⁻¹ at Papain [2] and 574 µM on Papain [3]. Besides, at Cathepsin B [4], the kinact was found to be 0.087 min⁻¹.
